Values of other authors as cited in patent publication US12274713B2, “Nutraceutical composition comprising a water-soluble fullerene and a ketone” (priority 2021, dated 2025).

System: tumor growth and metastasis
Settings: Prylutska et al.

c12c3c4c5c1c1c6c7c2c2c8c3c3c9c4c4c%10c5c5c1c1c6c6c%11c7c2c2c7c8c3c3c8c9c4c4c9c%10c5c5c1c1c6c6c%11c2c2c7c3c3c8c4c4c9c5c1c1c6c2c3c41 [60-carbon fullerene, Buckminsterfullerene]
tumor growth and metastasis: inhibit tumor growth and metastasis
